The target of the assay is T1, human 4lg B7-H3 (Homo sapiens, UniProt Q5ZPR3).
T1 sequence (Q5ZPR3 29-534): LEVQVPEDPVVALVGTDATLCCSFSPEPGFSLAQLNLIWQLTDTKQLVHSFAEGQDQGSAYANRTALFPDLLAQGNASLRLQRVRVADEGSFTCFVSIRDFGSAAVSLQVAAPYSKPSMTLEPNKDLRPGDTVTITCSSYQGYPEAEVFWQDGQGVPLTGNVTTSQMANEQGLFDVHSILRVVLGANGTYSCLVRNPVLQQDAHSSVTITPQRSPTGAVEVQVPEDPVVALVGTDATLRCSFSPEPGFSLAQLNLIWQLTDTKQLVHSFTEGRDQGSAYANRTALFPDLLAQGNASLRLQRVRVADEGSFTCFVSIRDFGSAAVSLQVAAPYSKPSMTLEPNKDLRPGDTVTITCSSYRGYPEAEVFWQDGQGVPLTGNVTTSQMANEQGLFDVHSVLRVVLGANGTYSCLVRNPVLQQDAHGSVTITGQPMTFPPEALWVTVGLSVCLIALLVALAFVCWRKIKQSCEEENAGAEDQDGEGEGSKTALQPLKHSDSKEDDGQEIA
Nature of the assay: Affinity determination by surface plasmon resonance (SPR) to 4Ig B7-H3. As to conditions: 4Ig B7-H3. On the technique in general: Surface plasmon resonance follows binding to a sensor surface in real time, without labels.

[1] abbreviates: SPR KD—25° C., 25° C. flow cell temperature.
The mark [2] stands for this setting: SPR KD—37° C., 37° C. flow cell temperature.

Starred links: 1 amine or outer side, 2 acyl side, 3 side chain; linkers in the order of their positions; H or OH if unused. Positions of bridges follow the written chain, without caps; N, C: chain ends. Non-standard residues stand in square brackets, D forms with d. Residues, ends and D or L forms follow the SMILES beside them. Groups on a side chain read outwards from the residue. *: point of attachment. X7 = O=C(O)CN1CCN(CC(=O)O)CCN(CC(=O)NCCOCCOCCOCCOCCOCCOCCOCCOCC(=O)*)CCN(CC(=O)O)CC1; X9 = CC(=O)N[C@@H](CCC(C)C)C(O)N([C@@H](Cc1ccc(O)cc1)C(=O)[*:2])[*:1]; Ala(1-CH2CO2H-4-piperidyl) = N[C@@H](CC1CCN(CC(=O)O)CC1)C(=O)O; Ala(piperidin-4-yl) = O=C([C@H](CC1CCN([*:3])CC1)N[*:1])[*:2]; DOTA = O=C(O)CN1CCN(CC(=O)O)CCN(CC(=O)*)CCN(CC(=O)O)CC1; Trp(5-F) = N[C@@H](Cc1c[nH]c2ccc(F)cc12)C(=O)O; X11 = O=C(CCCc1ccc(I)cc1)NCCOCCOCCOCCOCC(=O)*; 1Nal = N[C@@H](Cc1cccc2ccccc12)C(=O)O; Ala(4-THP) = N[C@@H](CC1CCOCC1)C(=O)O; AEF = NCCOc1ccc(C[C@H](N)C(=O)O)cc1; Val(3-OH) = CC(C)(O)[C@H](N)C(=O)O; aIle = CC[C@@H](C)[C@H](N)C(=O)O; Cha = N[C@@H](CC1CCCCC1)C(=O)O; NMeNle = CCCC[C@H](NC)C(=O)O; Tle = CC(C)(C)[C@H](N)C(=O)O; hLeu = CC(C)CC[C@H](N)C(=O)O; Nva = CCC[C@H](N)C(=O)O; PEG2 = NCCOCCOCCC(=O)O

For orientation: Kd means the constant that tells how readily two partners part at equilibrium. A high value points to weaker binding. Compound `CC(=O)N[C@@H](CCC(C)C)C(O)N[C@@H](Cc1ccc(O)cc1)C(=O)N[C@H]1CSSC[C@@H](C(=O)N[C@@H](Cc2cccc3ccccc23)C(=O)N[C@@H](Cc2ccccc2)C(=O)N2CCC[C@H]2C(=O)N[C@H](CCCCNC(=O)COCCOCCOCCOCCOCCOCCOCCOCCNC(=O)CN2CCN(CC(=O)O)CCN(CC(=O)O)CCN(CC(=O)O)CC2)C(N)=O)NC(=O)[C@H](Cc2ccc(O)cc2)NC(=O)[C@H](C(C)C)NC(=O)[C@H](CC(=O)O)NC(=O)[C@H](CC2CCCCC2)NC(=O)[C@H](CC2CCNCC2)NC(=O)CNC(=O)[C@H](C(C)(C)C)NC1=O` (stereo partly drawn) [compound 281, Ac-hLeu-Y-C-Tbg-G-PipAla-CHA-D-V-Y-C-1Nal-F-Pro-dLys(PEG8-DOTA)-CONH2] (H-[X9]C[Tle]G[Ala(piperidin-4-yl)][Cha]DVYC[1Nal]FP[dK](X7)-NH2; disulfide 2-10) displayed a Kd under setting [1] of 1 to 10 nM.

For the compound `CC[C@@H](C)[C@@H]1NC(=O)[C@H](CC(=O)O)NC(=O)[C@H](Cc2ccc(O)cc2)NC(=O)[C@H](CCCCN)NC(=O)CNC(=O)[C@H](C(C)C)NC(=O)[C@@H](NC(=O)[C@H](Cc2ccc(O)cc2)NC(=O)[C@H](CCC(C)C)NC(C)=O)CSSC[C@@H](C(=O)N[C@@H](Cc2c[nH]c3ccccc23)C(=O)N[C@@H](Cc2ccccc2)C(=O)N[C@H](C(=O)N[C@H](CCCCNC(=O)CN2CCN(CC(=O)O)CCN(CC(=O)O)CCN(CC(=O)O)CC2)C(N)=O)[C@@H](C)O)NC(=O)[C@H](Cc2ccc(O)cc2)NC1=O` [compound 126, Ac-hLeu-Y-C-V-G-K-Y-D-allolle-Y-C-W-F-Thr-dLys(DOTA)-CONH2] (Ac-[hLeu]YCVGKYD[aIle]YCWFT[dK](DOTA)-NH2; disulfide 3-11), under setting [1], the Kd is below 1 nM.

As for `CC(=O)N[C@@H](CCC(C)C)C(=O)N[C@@H](Cc1ccc(O)cc1)C(=O)N[C@H]1CSSC[C@@H](C(=O)N[C@@H](Cc2c[nH]c3ccc(F)cc23)C(=O)N[C@@H](Cc2ccccc2)C(=O)N[C@H](C(N)=O)[C@@H](C)O)NC(=O)[C@H](Cc2ccc(OCCNC(=O)CN3CCN(CC(=O)O)CCN(CC(=O)O)CCN(CC(=O)O)CC3)cc2)NC(=O)[C@H](C(C)C)NC(=O)[C@H](CC(=O)O)NC(=O)[C@H](Cc2ccc(O)cc2)NC(=O)[C@H](CCCCN)NC(=O)CNC(=O)[C@H](C(C)C)NC1=O` [compound 191, Ac-hLeu-Y-C-V-G-K-Y-D-V-AEF(DOTA)-C-5FW-F-Thr-CONH2] (Ac-[hLeu]YCVGKYDV[AEF](DOTA)C[Trp(5-F)]FT-NH2; disulfide 3-11), the Kd under setting [1] was 1 to 10 nM.

Turning to `CC(=O)N[C@@H](CCC(C)C)C(=O)N[C@@H](Cc1ccc(O)cc1)C(=O)N[C@H]1CSSC[C@@H](C(=O)N[C@@H](Cc2c[nH]c3ccc(F)cc23)C(=O)N[C@@H](Cc2ccccc2)C(=O)N[C@H](C(=O)N[C@H](CCCCNC(=O)CN2CCN(CC(=O)O)CCN(CC(=O)O)CCN(CC(=O)O)CC2)C(=O)O)C(C)(C)O)NC(=O)[C@H](Cc2ccc(O)cc2)NC(=O)[C@H](C(C)C)NC(=O)[C@H](CC(=O)O)NC(=O)[C@H](CC2CCOCC2)NC(=O)[C@H](CC2CCN(C(=O)COCCOCCOCCOCCNC(=O)CCCc3ccc(I)cc3)CC2)NC(=O)CNC(=O)[C@H](C(C)(C)C)NC1=O` [Cpd #364, Ac-hLeu-Y-C-Tbg-G-Pip(PEG4-AB)Ala-ThpA-D-V-Y-C-5FW-F-hydroxyVal-dLys(DOTA)-COOH] (Ac-[hLeu]YC[Tle]G[Ala(piperidin-4-yl)](X11)[Ala(4-THP)]DVYC[Trp(5-F)]F[Val(3-OH)][dK](DOTA)-OH; disulfide 3-11), under setting [2], the Kd was in the range of 1 to 10 nM.

Compound `CCC[C@@H]1NC(=O)[C@H](CC(=O)O)NC(=O)[C@H](Cc2ccc(O)cc2)NC(=O)[C@H](CCCCN)NC(=O)CNC(=O)[C@H](C(C)C)NC(=O)[C@@H](NC(=O)[C@H](Cc2ccc(O)cc2)NC(=O)[C@H](CCC(C)C)NC(C)=O)CSSC[C@@H](C(=O)N[C@@H](Cc2c[nH]c3ccc(F)cc23)C(=O)N[C@@H](Cc2ccccc2)C(=O)N[C@H](C(=O)N[C@H](CCCCNC(=O)CN2CCN(CC(=O)O)CCN(CC(=O)O)CCN(CC(=O)O)CC2)C(N)=O)[C@@H](C)O)NC(=O)[C@H](Cc2ccc(O)cc2)NC1=O` [compound 185, Ac-hLeu-Y-C-V-G-K-Y-D-Nva-Y-C-5FW-F-Thr-dLys(DOTA)-CONH2] (Ac-[hLeu]YCVGKYD[Nva]YC[Trp(5-F)]FT[dK](DOTA)-NH2; disulfide 3-11) registered a Kd under setting [1] of 1 to 10 nM.

Compound `CCCC[C@@H](C(=O)N[C@H](C(=O)N[C@H](CCCCNC(=O)CN1CCN(CC(=O)O)CCN(CC(=O)O)CCN(CC(=O)O)CC1)C(N)=O)[C@@H](C)O)N(C)C(=O)[C@H](Cc1c[nH]c2ccc(F)cc12)NC(=O)[C@@H]1CSSC[C@H](NC(=O)[C@H](Cc2ccc(O)cc2)NC(=O)[C@H](CCC(C)C)NC(C)=O)C(=O)N[C@@H](C(C)C)C(=O)NCC(=O)N[C@@H](CCCCN)C(=O)N[C@@H](Cc2ccc(O)cc2)C(=O)N[C@@H](CC(=O)O)C(=O)N[C@@H](C(C)C)C(=O)N[C@@H](Cc2ccc(O)cc2)C(=O)N1` [compound 176, Ac-hLeu-Y-C-V-G-K-Y-D-V-Y-C-5FW-NMeNle-Thr-dLys(DOTA)-CONH2] (Ac-[hLeu]YCVGKYDVYC[Trp(5-F)][NMeNle]T[dK](DOTA)-NH2; disulfide 3-11) gave a Kd under setting [1] of 1 to 10 nM.

As to `CC(=O)N[C@@H](CCC(C)C)C(=O)N[C@@H](Cc1ccc(O)cc1)C(=O)N[C@H]1CSSC[C@@H](C(=O)N[C@@H](Cc2c[nH]c3ccc(F)cc23)C(=O)N[C@@H](Cc2ccccc2)C(=O)N[C@H](C(=O)N[C@H](CCC(=O)O)C(N)=O)C(C)(C)O)NC(=O)[C@H](Cc2ccc(O)cc2)NC(=O)[C@H](C(C)C)NC(=O)[C@H](CC(=O)O)NC(=O)[C@H](CC2CCN(C(=O)CCOCCOCCNC(=O)CN3CCN(CC(=O)O)CCN(CC(=O)O)CCN(CC(=O)O)CC3)CC2)NC(=O)[C@H](CC2CCNCC2)NC(=O)CNC(=O)[C@H](C(C)(C)C)NC1=O` [Cpd #458, Ac-hLeu-Y-C-Tbg-G-PipAla-Pip(PEG2-DOTA)Ala-D-V-Y-C-5FW-F-hydroxyVal-dGlu-CONH2] (Ac-[hLeu]YC[Tle]G[Ala(piperidin-4-yl)][Ala(piperidin-4-yl)]([PEG2-DOTA])DVYC[Trp(5-F)]F[Val(3-OH)][dE]-NH2; disulfide 3-11), the equilibrium dissociation constant (Kd) under setting [2] is below 1 nM.

Under setting [2], `CC(=O)N[C@@H](CCC(C)C)C(=O)N[C@@H](Cc1ccc(O)cc1)C(=O)N[C@H]1CSSC[C@@H](C(=O)N[C@@H](Cc2c[nH]c3ccc(F)cc23)C(=O)N[C@@H](Cc2ccccc2)C(=O)N[C@H](C(N)=O)C(C)(C)O)NC(=O)[C@H](Cc2ccc(O)cc2)NC(=O)[C@H](C(C)C)NC(=O)[C@H](CC(=O)O)NC(=O)[C@H](CC2CCN(CC(=O)O)CC2)NC(=O)[C@H](CCCCNC(=O)CN2CCN(CC(=O)O)CCN(CC(=O)O)CCN(CC(=O)O)CC2)NC(=O)CNC(=O)[C@H](C(C)(C)C)NC1=O` [compound 419, Ac-hLeu-Y-C-Tbg-G-Lys(DOTA)-Pip(CH2COOH)Ala-D-V-Y-C-5FW-F-hydroxyVal-CONH2] (Ac-[hLeu]YC[Tle]GK(DOTA)[Ala(1-CH2CO2H-4-piperidyl)]DVYC[Trp(5-F)]F[Val(3-OH)]-NH2; disulfide 3-11) registered a Kd of 1 to 10 nM.
